A short description of the data set: Drug level in Chinese hamster V79 379A cells at 0.1 mM after 3.5 hrs by fluorescence microplate reader relative to control. The format is ADME, cell-based, Cricetulus griseus. The note with it: 100 µM.

Each structure is given as a SMILES string.

`CN(C)CCNc1ccc2c3c(cccc13)-c1nc3cc([N+](=O)[O-])ccc3nc1-2` registered a Fold change of 11.
Turning to `CN1CCN(c2ccc3c4c(cccc24)-c2nc4cc([N+](=O)[O-])ccc4nc2-3)CC1`, the Fold change is recorded as 9.
`O=[N+]([O-])c1ccc2nc3c(nc2c1)-c1cccc2c([N+](=O)[O-])ccc-3c12` showed a Fold change of 6.

These data come from ChEMBL document CHEMBL1143893, “Novel nitroheterocyclic hypoxic markers for solid tumor: synthesis and biological evaluation” (Bioorg Med Chem, 2008).
